Measurements taken from US20260035359A1, “HERBICIDAL IMIDAZOLE COMPOUNDS” (SYNGENTA CROP PROTECTION AG, priority 2022, published 2026).

Experiments:
Format in all cases: in vivo
[1] = tested on: Ipomoea hederacea (IPOHE); assay: Pre-emergence herbicidal glasshouse test; details: 250 g/ha, sprayed after one day cultivation, evaluated after 13 days
Method: (§1) Seeds of a variety of test species are sown in standard soil in pots Amaranthus pa/meri (AMAPA), Amaranthus retoflexus (AMARE), Echinochloa crus-gali (ECHCG), Ipomoea hederacea (IPOHE), Setaria faberi (SETFA). After cultivation for one day (pre-emergence) or after 8 days cultivation (post-emergence) under controlled conditions in a glasshouse (at 24/16° C., day/night; 14 hours light; 65% humidity), the plants are sprayed with an aqueous spray solution derived from the formulation of the technical active ingredient in acetone/water (50:50) solution containing 0.5% Tween 20 (polyoxyethelyene sorbitan monolaurate, CAS RN 9005-64-5). Compounds are applied at 250 g/ha unless otherwise stated. The test plants are then grown in a glasshouse under controlled conditions in a glasshouse (at 24/16° C., day/night; 14 hours light; 65% humidity) and watered twice daily. After 13 days for pre and post-emergence, the test is evaluated for the percentage damage caused to the plant. The biological activities are shown in the following table on a five-point scale (5=81-100%; 4=61-80%; 3=41-60%; 2=21-40%; 1=0-20%).

[2] = tested on: Setaria faberi (SETFA); assay: Pre-emergence herbicidal glasshouse test; details: 250 g/ha, sprayed after one day cultivation, evaluated after 13 days
Method: as §1

[3] = tested on: Amaranthus pa/meri (AMAPA); assay: Pre-emergence herbicidal glasshouse test; details: 250 g/ha, sprayed after one day cultivation, evaluated after 13 days
Method: as §1

[4] = tested on: Echinochloa crus-gali (ECHCG); assay: Pre-emergence herbicidal glasshouse test; details: 250 g/ha, sprayed after one day cultivation, evaluated after 13 days
Method: as §1

[5] = tested on: Amaranthus retoflexus (AMARE); assay: Pre-emergence herbicidal glasshouse test; details: 250 g/ha, sprayed after one day cultivation, evaluated after 13 days
Method: as §1

[6] = tested on: Ipomoea hederacea (IPOHE); assay: Post-emergence herbicidal glasshouse test; details: 250 g/ha, sprayed after 8 days cultivation, evaluated after 13 days
Method: as §1

[7] = tested on: Setaria faberi (SETFA); assay: Post-emergence herbicidal glasshouse test; details: 250 g/ha, sprayed after 8 days cultivation, evaluated after 13 days
Method: as §1

[8] = tested on: Amaranthus pa/meri (AMAPA); assay: Post-emergence herbicidal glasshouse test; details: 250 g/ha, sprayed after 8 days cultivation, evaluated after 13 days
Method: as §1

[9] = tested on: Echinochloa crus-gali (ECHCG); assay: Post-emergence herbicidal glasshouse test; details: 250 g/ha, sprayed after 8 days cultivation, evaluated after 13 days
Method: as §1

[10] = tested on: Amaranthus retoflexus (AMARE); assay: Post-emergence herbicidal glasshouse test; details: 250 g/ha, sprayed after 8 days cultivation, evaluated after 13 days
Method: as §1

SMILES | percentage damage caused to the plant, IPOHE [1] | percentage damage caused to the plant, SETFA [2] | percentage damage caused to the plant, AMAPA [3] | percentage damage caused to the plant, ECHCG [4] | percentage damage caused to the plant, AMARE [5] | percentage damage caused to the plant, IPOHE [6] | percentage damage caused to the plant, SETFA [7] | percentage damage caused to the plant, AMAPA [8] | percentage damage caused to the plant, ECHCG [9] | percentage damage caused to the plant, AMARE [10]
FC(F)(F)CCCc1nc(C(F)(F)F)cn1Cc1ncc(Cl)cn1 [Compound 1.025] | 5 (5=81-100%) | 5 (5=81-100%) | 5 (5=81-100%) | 5 (5=81-100%) | 5 (5=81-100%) | 4 (4=61-80%) | 5 (5=81-100%) | 5 (5=81-100%) | 5 (5=81-100%) | 5 (5=81-100%)
N#Cc1cn(Cc2ncc(Cl)cn2)c(CC2CCOC2)n1 (stereo not shown) [Compound 1.073, 1-[(5-chloropyrimidin-2-yl)methyl]-2-(tetrahydrofuran-3-ylmethyl)imidazole-4-carbonitrile] | 2 (2=21-40%) | 1 (1=0-20%) | 2 (2=21-40%) | 1 (1=0-20%) | 2 (2=21-40%) | 3 (3=41-60%) | 1 (1=0-20%) | 2 (2=21-40%) | 1 (1=0-20%) | 2 (2=21-40%)
FC(F)(F)c1cn(Cc2ncc(Cl)cn2)c(CCn2ccc(C(F)(F)F)n2)n1 [Compound 1.033] | 5 (5=81-100%) | 4 (4=61-80%) | 5 (5=81-100%) | 3 (3=41-60%) | 5 (5=81-100%) | 4 (4=61-80%) | 3 (3=41-60%) | 3 (3=41-60%) | 3 (3=41-60%) | 4 (4=61-80%)
FC(F)COCc1nc(C(F)(F)F)cn1Cc1ncc(Cl)cn1 [Compound 1.022] | 4 (4=61-80%) | 1 (1=0-20%) | 2 (2=21-40%) | 1 (1=0-20%) | 3 (3=41-60%) | 3 (3=41-60%) | 1 (1=0-20%) | 3 (3=41-60%) | 1 (1=0-20%) | 3 (3=41-60%)
FC(F)(F)c1cn(Cc2ncc(Cl)cn2)c(CCl)n1 [Compound 1.071, 5-chloro-2-[[2-(chloromethyl)-4-(trifluoromethyl)imidazol-1-yl]methyl]pyrimidine] | 1 (1=0-20%) | 1 (1=0-20%) | 2 (2=21-40%) | 1 (1=0-20%) | 3 (3=41-60%) | 1 (1=0-20%) | 1 (1=0-20%) | 1 (1=0-20%) | 1 (1=0-20%) | 1 (1=0-20%)
OCC(O)CCc1nc(C(F)(F)F)cn1Cc1ncc(Cl)cn1 (stereo not shown) [Compound 1.011, 4-[1-[(5-chloropyrimidin-2-yl)methyl]-4-(trifluoromethyl)imidazol-2-yl]butane-1,2-diol] | 1 (1=0-20%) | 1 (1=0-20%) | 1 (1=0-20%) | 1 (1=0-20%) | 1 (1=0-20%) | 3 (3=41-60%) | 1 (1=0-20%) | 2 (2=21-40%) | 1 (1=0-20%) | 2 (2=21-40%)
FC(F)c1nc(C(F)(F)F)cn1Cc1ncc(Cl)cn1 [Compound 1.070, 5-chloro-2-[[2-(difluoromethyl)-4-(trifluoromethyl)imidazol-1-yl]methyl]pyrimidine] | 3 (3=41-60%) | 1 (1=0-20%) | 5 (5=81-100%) | 1 (1=0-20%) | 5 (5=81-100%) | 2 (2=21-40%) | 1 (1=0-20%) | 1 (1=0-20%) | 1 (1=0-20%) | 1 (1=0-20%)
FC(F)(F)CCCc1nc(Cl)cn1Cc1ncc(Cl)cn1 [Compound 1.001, 5-chloro-2-[[4-chloro-2-(4,4,4-trifluorobutyl)imidazol-1-yl]methyl]pyrimidine] | 1 (1=0-20%) | 1 (1=0-20%) | 2 (2=21-40%) | 1 (1=0-20%) | 1 (1=0-20%) | 2 (2=21-40%) | 1 (1=0-20%) | 2 (2=21-40%) | 1 (1=0-20%) | 2 (2=21-40%)
COCc1nc(C(F)(F)F)cn1Cc1ncc(Cl)cn1 [Compound 1.023] | 1 (1=0-20%) | 1 (1=0-20%) | 2 (2=21-40%) | 1 (1=0-20%) | 2 (2=21-40%) | 2 (2=21-40%) | 1 (1=0-20%) | 1 (1=0-20%) | 1 (1=0-20%) | 1 (1=0-20%)
N#CC1(c2nc(C(F)(F)F)cn2Cc2ncc(Cl)cc2F)CC1 [Compound 1.069] | 4 (4=61-80%) | 1 (1=0-20%) | 4 (4=61-80%) | 1 (1=0-20%) | 5 (5=81-100%) | 4 (4=61-80%) | 1 (1=0-20%) | 4 (4=61-80%) | 1 (1=0-20%) | 4 (4=61-80%)
CC(F)(F)CCc1nc(C(F)(F)F)cn1Cc1ncc(Cl)cn1 [Compound 1.085] | 5 (5=81-100%) | 5 (5=81-100%) | 5 (5=81-100%) | 5 (5=81-100%) | 5 (5=81-100%) | 4 (4=61-80%) | 5 (5=81-100%) | 5 (5=81-100%) | 4 (4=61-80%) | 5 (5=81-100%)
CC(C)(C#N)Cc1nc(C(F)(F)F)cn1Cc1ncc(Cl)cn1 [Compound 1.061] | 4 (4=61-80%) | 1 (1=0-20%) | 3 (3=41-60%) | 1 (1=0-20%) | 3 (3=41-60%) | 4 (4=61-80%) | 1 (1=0-20%) | 3 (3=41-60%) | 1 (1=0-20%) | 4 (4=61-80%)
CS(=O)(=O)CCc1nc(C(F)(F)F)cn1Cc1ncc(Cl)cn1 [Compound 1.048] | 5 (5=81-100%) | 1 (1=0-20%) | 4 (4=61-80%) | 1 (1=0-20%) | 5 (5=81-100%) | 4 (4=61-80%) | 1 (1=0-20%) | 4 (4=61-80%) | 1 (1=0-20%) | 4 (4=61-80%)
